Assay: gradient 5% acetonitrile 3 min, to 50% in 2 min, to 85% in 15 min, held 3 min, 100 µL/min
Details: column: Zorbax Extend-C18 2.1 x 50 mm; eluents: water / acetonitrile, 0.1% formic acid
How it was run: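 Standards, all pure, were combined into mixtures of ~100 molecules and run at 100 μL/min on a Zorbax Extend-C18 column (2.1 × 50 mm, 1.8 μm) with water and acetonitrile, each containing 0.1% formic acid. A coupled quadrupole time-of-flight mass spectrometer operated in positive and negative ionization mode. Retention time values come from computationally picked adduct peaks, each inspected manually.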

Row | Compound | RP-LC retention time [s]
1 | COc1ccc(-c2noc(Cc3nnc(-c4cc(C)cc(C)c4)o3)n2)cc1OC | 997
2 | COc1ccc(OC)c(CNC(=O)C2CCCN(c3ccc(=O)n(-c4cccc(F)c4)n3)C2)c1 (configuration not stated) | 827
3 | COc1ccc(NC(=O)N2CCC3(CC2)NC(=O)c2ccc(Cl)cc2N3C)cc1OC | 734
4 | CC(C)Cn1nc2n(c1=O)CCN(S(=O)(=O)Cc1ccccc1)CC2 | 777
5 | Cc1ccc(S(=O)(=O)N2CC(=O)N(c3cccc(F)c3)C(C)(C(=O)NCc3ccccc3)C2)cc1 (configuration not stated) | 948
6 | O=C(Cc1csc2nc(-c3ccccc3)cn12)N1CCN(c2ccccc2F)CC1 | 869
7 | Clc1cccc(-c2cc3c(N4CCN(Cc5ccc6c(c5)OCO6)CC4)nccn3n2)c1 | 820
8 | COC(=O)c1ccc(C(=O)Nc2cccc3c(OC)cccc23)cc1 | 821
9 | Cc1nn(-c2ccccc2)c2c1N(CC(=O)NC1CCCC1)C(=O)CS2 | 780
10 | CCC(=O)Nc1ccc(C2(C(=O)NC(C)CC)CCCCC2)cc1 (configuration not stated) | 845
11 | CCOc1ccccc1NC(=O)CN1C(=O)C2CCCCN2c2ccc(S(=O)(=O)N(C)C)cc21 (configuration not stated) | 887
12 | COc1cccc(-n2c(=O)c(C(=O)Nc3ccccc3Cl)c(O)c3cccnc32)c1 | 1290
13 | Cc1cc(N2CCCC2)nc(N2CCN(C(=O)C3CCCCC3)CC2)n1 | 693
14 | CC(C)NC(=O)c1n[nH]c2c1CCCC2 | 662
15 | CCCNc1cc(N2CCC(CCC(=O)NC3CCN(Cc4ccccc4)CC3)CC2)ncn1 | 572
16 | COc1ccc(NS(=O)(=O)c2c(C)c(-c3nnc(C4CCC4)o3)n(C)c2C)c(C)c1 | 929
17 | COc1ccc(Cn2c(C)c(CNCCc3ccco3)c(C(=O)O)c2C)cc1 | 704
18 | CC(Oc1ccc(=O)n(-c2ccc(F)cc2)n1)C(=O)Nc1cccc(Cl)c1 (configuration not stated) | 802
19 | CC1(C(=O)NCc2ccccc2)CCN(S(=O)(=O)c2ccc(Br)cc2)CC1 | 961
20 | CN(C)C[C@@H]1CN(c2ncccn2)C[C@H]1NS(=O)(=O)Cc1ccccc1 | 601
21 | CCN1CCN(CCCNC(=O)CN2CCSc3ccccc32)CC1 | 580
22 | COc1ccc(-c2cn3ccn(-c4ccc(OC)c(Cl)c4)c(=O)c3n2)cc1 | 1240
23 | CCN(CC)S(=O)(=O)c1ccc2c(c1)N(CC(=O)NCCC(C)C)C(=O)C1CCCCN21 (configuration not stated) | 991

Row | Compound | RP-LC retention time [s]
24 | CC1(C(=O)NCc2ccc(F)c(Cl)c2)Oc2cccnc2NC1=O (configuration not stated) | 730
25 | COc1ccc(C(=O)NC2CCN(c3cc(C)cc(C)c3)C2=O)cc1F (configuration not stated) | 901
26 | CCOc1ccc(N(C)C(=O)Cn2cccc2-c2nnc(C3CC3)o2)cc1 | 888
27 | C[C@H]1CN(C(=O)c2ccccc2F)C[C@@H]1c1nc(-c2ccccc2)no1 | 1020
28 | CCc1nc(OCC(=O)Nc2cccc(Br)c2)c2ccccc2n1 | 889
29 | Cc1ccc(CNS(=O)(=O)c2cc(-c3[nH]ncc3C(=O)N3CCCC3)oc2C)cc1C | 768
30 | O=C(NCc1cccc(C(F)(F)F)c1)c1cn2ccccc2n1 | 748
31 | COc1cc(OC)c(NC(=O)N2CCc3c(c(C(=O)N4CCOCC4)nn3C)C2)cc1Cl | 692
32 | CCCCN1C(=O)C(NC(=O)CCc2ccccc2)(C(F)(F)F)C(C(=O)OC)=C1C (configuration not stated) | 1030
33 | COCCC(=O)N1CCCN(C2=NS(=O)(=O)C(c3ccccc3)=C2C)CC1 | 669
34 | COc1ccc(-c2nc(-c3cccc(-c4ccnn4C)c3)no2)c(C)c1 | 1210
35 | Cc1cccc(-c2noc(C3CC(=O)N(c4ccc5c(c4)OCCO5)C3)n2)c1 (configuration not stated) | 980
36 | CC(C)n1cnc(S(=O)(=O)N2CCC(C(=O)N3CCN(c4ccc(F)cc4)CC3)CC2)c1 | 799
37 | O=C(NC1CCCCCC1)c1ccnc(N2CCNC(c3ccccc3)C2)c1 (configuration not stated) | 684
38 | Cc1nnc(-c2ccc(S(=O)(=O)N3CCCC(C)C3)o2)o1 (configuration not stated) | 836
39 | COc1cc(NC(=O)c2cn(-c3cc(N4CCC(C)CC4)ncn3)cn2)cc(OC)c1 | 1110
40 | O=C(CCSc1ccc(F)cc1)Nc1nc2c(s1)CCC2 | 878
41 | Cn1cc(C2=CCN(CC(=O)N3CCN(c4ccc(F)cc4)CC3)CC2)cn1 | 612
42 | COc1ccc(NC(=O)C2(C)Oc3cccnc3NC2=O)cc1OC (configuration not stated) | 651
43 | CCOC(=O)c1c(C)oc2nc(C)nc(NCCCN(CC)c3cccc(C)c3)c12 | 812
44 | CCn1cc(-c2nc(CC(=O)Nc3cc(C)ccc3OC)cs2)c2cccnc21 | 1040
45 | O=C(Cn1cccc1-c1nnc(-c2ccccc2)o1)Nc1ccc(Cl)cc1 | 1030
46 | COc1ccc2c(c1)C1(CCN(C(=O)NC3CCCCC3)C1)C(=O)N2 (configuration not stated) | 703

Row | Compound | RP-LC retention time [s]
47 | CCc1nc(-c2csc(S(=O)(=O)N3CCC(C(=O)N4CCOCC4)CC3)c2)no1 | 796
48 | O=C(Cc1ccc(Cl)cc1)N1CCN(c2nc(CN3CCOCC3)cs2)CC1 | 642
49 | Nc1cc(C2CCN(C(=O)c3ccc(F)c(Cl)c3)CC2)no1 | 712
50 | Cc1cc(C)cc(OCc2nc(CCN(C)C(=O)COc3ccccc3)no2)c1 | 1030
51 | CCCc1sc(NC(=O)Cn2nc3c(cc2=O)CCCC3)nc1C(=O)OC | 840
52 | CCn1cc(CCNC(=O)Nc2ccc(C)c(C)c2)c2cccnc21 | 762
53 | CN1C(=O)COc2ccc(-c3csc(NC(=O)c4cccc(Br)c4)n3)cc21 | 1060
54 | O=C(NCC(F)(F)F)C1CCN(C(=O)Cc2noc3ccccc23)CC1 | 687
55 | O=S(=O)(NCCc1noc(-c2ccccc2)n1)c1cccs1 | 849
56 | CC(C)NC(=O)CN1C(=O)C2CCCCN2c2ccc(S(=O)(=O)N(C)C)cc21 (configuration not stated) | 781
57 | CCCCC(=O)Nc1nc(-c2ccc3c(c2)NC(=O)C(C)O3)c(C)s1 (configuration not stated) | 871
58 | Cc1nn2c(CNS(=O)(=O)c3ccccc3)c(-c3ccccc3)nc2s1 | 818
59 | CCCCOc1ccc(C(=O)N2CCN(c3nc4ccncc4n(C)c3=O)CC2)cc1 | 702
60 | O=C1NCCCn2cc(S(=O)(=O)Nc3ccc(Oc4ccccc4)cc3)cc21 | 768
61 | O=C(Nc1cccc(Cl)c1)c1ccccn1 | 1010
62 | Fc1cccc(Nc2ncnc3c2cnn3-c2ccccc2)c1 | 1020
63 | CC(C(=O)NN1CCOCC1)n1nc(-c2ccco2)ccc1=O (configuration not stated) | 584
64 | CCOc1ccc(N2CC(CNC(=O)Nc3cc(OC)c(OC)c(OC)c3)CC2=O)cc1 (configuration not stated) | 668
65 | CCCNC(=O)c1cccc2c1CCN2C(C)=O | 633
66 | Cn1cc(CN2CCC(C(=O)NCCN3CCN(c4ccccc4)CC3)CC2)c2ccccc21 | 571
67 | COC(=O)c1ccc(NC(=O)N2CCc3nc[nH]c3C2)cc1 | 591
